From ChEMBL document CHEMBL4619780, “Structure-Activity Relationship Studies of Retro-1 Analogues against Shiga Toxin” (J Med Chem, 2020)
pEC50: −log10 of the molar value.

What was measured:
[1] = cells; type: cell-based; settings: Escherichia coli, HeLa
[2] = cells; type: cell-based; settings: Escherichia coli, HeLa; remark: listed apart in the source
[3] = cells; type: cell-based; settings: Escherichia coli, HeLa; remark: listed apart in the source
[4] = Inhibition of Escherichia coli shiga toxin
[5] = cells; type: cell-based; settings: Escherichia coli, HeLa; remark: listed apart in the source

Compound	pEC50 [1]	also measured
CC(C1CC1)N1CC(=O)Nc2ccc(Br)cc2C1c1ccccc1 (mixture of isomers)	5.29	–
CC[C@@H](C(=O)[C@@H](C)[C@@H](O)[C@H](C)CCc1ccc(C)c(O)c1C(=O)O)[C@H]1O[C@](CC)([C@H]2CC[C@](O)(CC)[C@H](C)O2)C[C@@H]1C [LASALOCID]	–	pEC50 [2]: 5.70
O=C1CN(C2CCCC2)C(c2ccccc2)c2cc(F)ccc2N1 (configuration not stated)	5.64	–
CCC(=O)N1CC(=O)Nc2ccc(Br)cc2C1c1ccccc1 (racemic)	–	pEC50 [3]: 5.21
CCCN1CC(=O)Nc2ccc(Br)cc2C1c1ccccc1F (configuration not stated)	5.41	–
O=C1CN(C2CCCC2)[C@H](c2ccccc2)c2cc(I)ccc2N1	7.05	–
O=C1CN(C2CCCC2)C(c2ccccc2)c2ccccc2N1 (configuration not stated)	5.21	–
CCCN1CC(=O)Nc2ccc(Br)cc2C1c1ccc(F)cc1F (configuration not stated)	4.89	–
CC1CCCC1N1CC(=O)Nc2ccc(Br)cc2C1c1ccccc1 (mixture of isomers)	5.41	–
CCCN1CC(=O)Nc2ccc(I)cc2C1c1ccccc1 (configuration not stated)	5.70	–
O=C1CN(C2CCCCC2)C(c2ccccc2)c2cc(Br)ccc2N1 (configuration not stated)	5.33	–
O=C1CN(C2CCCC2)C(c2ccccc2)c2cc(Br)ccc2N1 (configuration not stated)	6.22	–
CC/C(=C(\c1ccccc1)c1ccc(OCCN(C)C)cc1)c1ccccc1 [TAMOXIFEN]	–	pEC50 [4]: 5.00 to 5.70
CCCN1CC(=O)Nc2ccc(Cl)cc2C1c1ccccc1 (configuration not stated)	4.89	–
CCN1CC(=O)Nc2ccc(Br)cc2C1c1ccccc1 (configuration not stated)	5.06	–
CCCN1CC(=O)Nc2ccc(N=[N+]=[N-])cc2C1c1ccccc1 (configuration not stated)	4.96	–
CCCC(=O)N1CC(=O)Nc2ccc(Br)cc2C1c1ccccc1 (configuration not stated)	4.96	–
CC1CCC(N2CC(=O)Nc3ccc(Br)cc3C2c2ccccc2)C1 (mixture of isomers)	5.89	–
O=C1CN(C2CCCC2)C(c2ccccc2)c2cc(I)ccc2N1 (racemic)	6.55	–
O=C1CN(C2CCCC2)C(c2ccccc2)c2cc(Cl)ccc2N1 (configuration not stated)	6.07	–
C#CCCN1CC(=O)Nc2ccc(Br)cc2C1c1ccccc1 (configuration not stated)	5.19	–
C[C@H]1CCC/C=C/[C@@H]2C[C@H](O)C[C@H]2[C@H](O)/C=C/C(=O)O1 [BREFELDIN A]	–	pEC50 [5]: 5.30
CCCN1CC(=O)Nc2ccc(Br)cc2C1c1ccccc1 (configuration not stated)	5.40	–
O=[N+]([O-])c1ccc(CSc2ncnc3c2ncn3[C@@H]2O[C@H](CO)[C@@H](O)[C@H]2O)cc1 [NITROBENZYLMERCAPTOPURINE RIBONUCLEOSIDE]	–	pEC50 [4]: 4.00 to 4.60
Cc1ccc(C2Nc3ccccc3C(=O)N2c2ccccc2)s1 (configuration not stated)	–	pEC50 [3]: 4.56
CC1(C)CC(/C=C/c2ccccc2)=Nc2ccccc2N1	–	pEC50 [4]: 4.30
Cc1cccc(C)c1Nc1c(-c2cc(Br)ccc2O)nc2[nH]cnn12	–	pEC50 [4]: 4.60
